Our source for the Ki values is US20200190081A1, “META SUBSTITUTED PHENYLPYRAZOLO- AND PHENYLPYRROLO- PYRIDAZINE DERIVATIVES HAVING MULTIMODAL ACTIVITY AGAINST PAIN” (ESTEVE PHARMACEUTICALS, S.A., priority 2016, published 2020).

The target of test [1] is Human norepinephrine transporter (NET) (Homo sapiens, UniProt P23975). The test can be described thus: Binding assay to human norepinephrine transporter (NET), [3H]-Nisoxetin. The following applies: human NET enriched membranes, 5 nM [3H]-Nisoxetin. The procedure:
Binding Assay to Human Norepinephrine Transporter (NET).
Human norepinephrine transporter (NET) enriched membranes (5 μg) were incubated with 5 nM of radiolabeled [3H]-Nisoxetin in assay buffer containing 50 mM Tris-HCl, 120 mM NaCl, 5 mM KCl, pH 7.4. NSB (non specific binding) was measured by adding 10 μM of desipramine. The binding of the test compound was measured at five different concentrations. After 60 min incubation at 4° C., binding reaction was terminated by filtering through Multiscreen GF/C (Millipore) presoaked in 0.5% polyethyleneimine in Vacuum Manifold Station, followed by 3 washes with ice-cold filtration buffer containing 50 mM Tris-HCl, 0.9% NaCl, pH 7.4. Filter plates were dried at 60° C. for 1 hour and 30 μl of scintillation cocktail were added to each well before radioactivity reading. Readings were performed in a Trilux 1450 Microbeta radioactive counter (Perkin Elmer).

Test [2] concerns the target Human α2δ-1 Subunit of Cav2.2 Calcium Channel (Homo sapiens, UniProt P54289). The test can be described thus: Human α2δ-1 subunit of Cav2.2 calcium channel assay, [3H]-Gabapentin binding. The following applies: human α2δ-1 enriched membranes, 15 nM [3H]-Gabapentin. How it is done: Human α2δ-1 Subunit of Cav2.2 Calcium Channel Assay
Human α2δ-1 enriched membranes (2.5 μg) were incubated with 15 nM of radiolabeled [3H]-Gabapentin in assay buffer containing Hepes-KOH 10 mM, pH 7.4. NSB (non specific binding) was measured by adding 10 μM pregabalin. The binding of the test compound was measured at five different concentrations. After 60 min incubation at 27° C., binding reaction was terminated by filtering through Multiscreen GF/C (Millipore) presoaked in 0.5% polyethyleneimine in Vacuum Manifold Station, followed by 3 washes with ice-cold filtration buffer containing 50 mM Tris-HCl, pH 7.4. Filter plates were dried at 60° C. for 1 hour and 30 μl of scintillation cocktail were added to each well before radioactivity reading. Readings were performed in a Trilux 1450 Microbeta radioactive counter (Perkin Elmer).

Bounds are passed on as bounds.

One may read the Ki as the dissociation constant of the complex between target and ligand, obtained from inhibition or displacement.

Chain of Human norepinephrine transporter (NET) (P23975 whole entry): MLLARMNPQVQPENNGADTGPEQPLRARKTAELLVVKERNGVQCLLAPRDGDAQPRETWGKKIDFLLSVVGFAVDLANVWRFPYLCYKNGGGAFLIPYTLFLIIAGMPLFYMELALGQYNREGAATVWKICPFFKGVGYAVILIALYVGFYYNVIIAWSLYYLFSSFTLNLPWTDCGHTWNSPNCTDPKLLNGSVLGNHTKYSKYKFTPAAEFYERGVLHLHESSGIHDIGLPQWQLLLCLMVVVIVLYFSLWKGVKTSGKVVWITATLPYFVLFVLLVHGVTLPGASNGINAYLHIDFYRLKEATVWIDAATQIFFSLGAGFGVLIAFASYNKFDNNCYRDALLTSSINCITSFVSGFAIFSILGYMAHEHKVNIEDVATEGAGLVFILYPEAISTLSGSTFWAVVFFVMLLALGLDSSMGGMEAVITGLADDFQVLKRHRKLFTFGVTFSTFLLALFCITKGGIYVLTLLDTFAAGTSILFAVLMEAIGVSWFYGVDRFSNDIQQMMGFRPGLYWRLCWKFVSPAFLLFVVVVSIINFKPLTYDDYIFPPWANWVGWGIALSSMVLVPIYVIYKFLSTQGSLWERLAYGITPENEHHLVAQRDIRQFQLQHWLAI
Chain of Human α2δ-1 Subunit of Cav2.2 Calcium Channel (P54289 25-1103): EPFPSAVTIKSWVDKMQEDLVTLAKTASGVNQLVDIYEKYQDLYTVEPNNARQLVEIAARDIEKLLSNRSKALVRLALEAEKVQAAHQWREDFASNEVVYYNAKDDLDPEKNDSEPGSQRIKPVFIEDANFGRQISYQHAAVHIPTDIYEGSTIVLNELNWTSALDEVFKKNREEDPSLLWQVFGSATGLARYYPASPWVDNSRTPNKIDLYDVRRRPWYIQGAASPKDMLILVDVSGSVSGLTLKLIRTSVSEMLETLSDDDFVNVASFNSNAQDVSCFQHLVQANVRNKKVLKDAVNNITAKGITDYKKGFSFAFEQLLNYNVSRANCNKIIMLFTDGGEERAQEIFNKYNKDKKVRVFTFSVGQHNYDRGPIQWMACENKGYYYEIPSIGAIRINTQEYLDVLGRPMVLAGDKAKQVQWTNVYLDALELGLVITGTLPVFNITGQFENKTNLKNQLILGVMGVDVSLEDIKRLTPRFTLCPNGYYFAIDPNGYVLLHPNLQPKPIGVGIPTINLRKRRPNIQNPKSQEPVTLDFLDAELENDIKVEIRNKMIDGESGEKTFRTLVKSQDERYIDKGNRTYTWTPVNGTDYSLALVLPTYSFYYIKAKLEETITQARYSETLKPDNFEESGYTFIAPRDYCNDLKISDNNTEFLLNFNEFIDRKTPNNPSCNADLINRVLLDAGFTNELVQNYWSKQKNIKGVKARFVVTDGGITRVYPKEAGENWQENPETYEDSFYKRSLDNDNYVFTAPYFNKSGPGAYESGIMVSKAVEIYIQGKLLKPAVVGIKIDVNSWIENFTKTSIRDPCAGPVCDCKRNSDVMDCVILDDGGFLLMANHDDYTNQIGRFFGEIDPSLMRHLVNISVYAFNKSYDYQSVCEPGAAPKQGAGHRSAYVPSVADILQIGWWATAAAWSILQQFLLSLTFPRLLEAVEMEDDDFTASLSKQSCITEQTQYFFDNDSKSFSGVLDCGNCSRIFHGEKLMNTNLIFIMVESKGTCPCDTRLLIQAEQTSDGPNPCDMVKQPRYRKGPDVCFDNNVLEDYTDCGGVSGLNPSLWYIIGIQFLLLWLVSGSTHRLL

Turning to `CNCCC(Oc1cccc(-n2nc3c(N(C)C)nnc(C)c3c2C)c1)c1ccc(OC(F)(F)F)cc1` (stereo not shown) [Example 46, N,N,3,4-tetramethyl-2-(3-(3-(methylamino)-1-(4-(trifluoromethoxy)phenyl)propoxy)phenyl)-2H-pyrazolo[3,4-d]pyridazin-7-amine], the Ki in test [1] lay in the range of 100 to 500 nM; in test [2], 500 to 5000 nM.
On the same counts, the results for `CNCCC(Oc1cccc(-n2nc3c(N(C)C)nnc(C)c3c2C)c1)c1ccccn1` (stereo not shown) [Example 9, N,N,3,4-tetramethyl-2-(3-(3-(methylamino)-1-(pyridin-2-yl)propoxy)phenyl)-2H-pyrazolo[3,4-d]pyridazin-7-amine] are 100 to 500 nM and 500 to 5000 nM.
With `CNCCC(Oc1cccc(-n2nc3c(N(C)C)nnc(C)c3c2C)c1)c1cncs1` (stereo not shown) [Example 48, N,N,3,4-tetramethyl-2-(3-(3-(methylamino)-1-(thiazol-5-yl)propoxy)phenyl)-2H-pyrazolo[3,4-d]pyridazin-7-amine], the results for the Ki in test [1] and in test [2] were 500 to 1000 nM and less than 500 nM, respectively.
Consider `CNCCC(Oc1cccc(-n2nc3c(N4CC(OC)C4)nnc(C)c3c2C)c1)c1ccccc1F` (stereo not shown) [Example 33, 3-(2-fluorophenyl)-3-(3-(7-(3-methoxyazetidin-1-yl)-3,4-dimethyl-2H-pyrazolo[3,4-d]pyridazin-2-yl)phenoxy)-N-methylpropan-1-amine], for which the inhibition constant (Ki) in test [1] fell in the range of 500 to 1000 nM; in test [2], 500 to 5000 nM.
Turning to `CNCC[C@@H](Oc1cccc(-n2nc3c(N(C)C)nnc(C)c3c2C)c1)c1cccnc1` [Example 65, (R)-N,N,3,4-tetramethyl-2-(3-(3-(methylamino)-1-(pyridin-3-yl)propoxy)phenyl)-2H-pyrazolo[3,4-d]pyridazin-7-amine], the inhibition constant (Ki) in test [1] is 500 to 1000 nM; in test [2], 500 to 5000 nM.
On the same counts, the results for `Cc1nnc(N(C)C)c2nn(-c3cccc(OC(CCNCC(F)F)c4ccccc4)c3)c(C)c12` (stereo not shown) [Example 55, 2-(3-(3-((2,2-difluoroethyl)amino)-1-phenylpropoxy)phenyl)-N,N,3,4-tetramethyl-2H-pyrazolo[3,4-d]pyridazin-7-amine] are 500 to 1000 nM and 500 to 5000 nM.
On the same counts, the results for `CNCCC(Oc1cccc(-n2nc3c(N(C)C)nnc(C)c3c2C)c1)c1cccc(F)c1` (stereo not shown) [Example 5, 2-(3-(1-(3-fluorophenyl)-3-(methylamino)propoxy)phenyl)-N,N,3,4-tetramethyl-2H-pyrazolo[3,4-d]pyridazin-7-amine] are less than 100 nM and 500 to 5000 nM.
Take `CNc1nnc(C)c2c(C)n(-c3cccc(OC(CCN)c4ccccc4F)c3)nc12` (stereo not shown) [Example 23, 2-(3-(3-amino-1-(2-fluorophenyl)propoxy)phenyl)-N,3,4-trimethyl-2H-pyrazolo[3,4-d]pyridazin-7-amine]: the inhibition constant Ki in test [1] lay within 100 to 500 nM; in test [2], 500 to 5000 nM.
On the same counts, the results for `CNCCC(Oc1cccc(-n2nc3c(N)nnc(C)c3c2C)c1)c1ccccc1F` (stereo not shown) [Example 26, 2-(3-(1-(2-fluorophenyl)-3-(methylamino)propoxy)phenyl)-3,4-dimethyl-2H-pyrazolo[3,4-d]pyridazin-7-amine] are 100 to 500 nM and 500 to 5000 nM.
Take `CNCCC(Oc1cccc(-n2c(C)c3c(C)nnc(C)c3c2C)c1)c1cccc(F)c1` (stereo not shown) [Example 67, 3-(3-fluorophenyl)-N-methyl-3-(3-(1,4,5,7-tetramethyl-6H-pyrrolo[3,4-d]pyridazin-6-yl)phenoxy)propan-1-amine]: the Ki was 100 to 500 nM in test [1] and 500 to 5000 nM in test [2].
On the same counts, the results for `Cc1nnc(N(C)C)c2nn(-c3cccc(O[C@@H](c4ccccc4)[C@@H]4CNCCO4)c3)c(C)c12` (racemic) [Example 13, N,N,3,4-tetramethyl-2-(3-((S)-((S)-morpholin-2-yl)(phenyl)methoxy)phenyl)-2H-pyrazolo[3,4-d]pyridazin-7-amine] are 500 to 1000 nM and 500 to 5000 nM.
In the case of `CNCC[C@H](Oc1cccc(-n2nc3c(N(C)C)nnc(C)c3c2C)c1)c1ccccc1F` [Example 63, (S)-2-(3-(1-(2-fluorophenyl)-3-(methylamino)propoxy)phenyl)-N,N,3,4-tetramethyl-2H-pyrazolo[3,4-d]pyridazin-7-amine], the values for the inhibitory constant (Ki) in test [1] and in test [2] were less than 100 nM and 500 to 5000 nM, respectively.
Consider `CNCC(Oc1cccc(-n2nc3c(N(C)C)nnc(C)c3c2C)c1)c1ccccc1F` (stereo not shown) [Example 41, 2-(3-(1-(2-fluorophenyl)-2-(methylamino)ethoxy)phenyl)-N,N,3,4-tetramethyl-2H-pyrazolo[3,4-d]pyridazin-7-amine], for which the Ki in test [1] fell in the range of 100 to 500 nM; in test [2] it was 500 to 5000 nM.
`CNCC[C@@H](Oc1cccc(-n2c(C)c3c(C)nnc(C)c3c2C)c1)c1cccc(F)c1` [Example 69, (R)-3-(3-fluorophenyl)-N-methyl-3-(3-(1,4,5,7-tetramethyl-6H-pyrrolo[3,4-d]pyridazin-6-yl)phenoxy)propan-1-amine]: the figures for the Ki in test [1] and in test [2] were 100 to 500 nM and less than 500 nM, respectively.
On the same counts, the results for `Cc1nnc(N)c2nn(-c3cccc(OC(CCN)c4ccccc4F)c3)c(C)c12` (stereo not shown) [Example 28, 2-(3-(3-amino-1-(2-fluorophenyl)propoxy)phenyl)-3,4-dimethyl-2H-pyrazolo[3,4-d]pyridazin-7-amine] are 500 to 1000 nM and 500 to 5000 nM.
On the same counts, the results for `CNC(COc1cccc(-n2nc3c(N(C)C)nnc(C)c3c2C)c1)Cc1ccccc1` (stereo not shown) [Example 47, N,N,3,4-tetramethyl-2-(3-(2-(methylamino)-3-phenylpropoxy)phenyl)-2H-pyrazolo[3,4-d]pyridazin-7-amine] are less than 100 nM and less than 500 nM.
On the same counts, the results for `CNCCC(Oc1cccc(-n2nc3c(N(C)CCCO)nnc(C)c3c2C)c1)c1ccccc1F` (stereo not shown) [Example 32, 3-((2-(3-(1-(2-fluorophenyl)-3-(methylamino)propoxy)phenyl)-3,4-dimethyl-2H-pyrazolo[3,4-d]pyridazin-7-yl)(methyl)amino)propan-1-ol] are less than 100 nM and 500 to 5000 nM.
Consider `CNCCC(Oc1cccc(-n2nc3c(N(C)C)nnc(C)c3c2C)c1)c1cccnc1` (stereo not shown) [Example 42, N,N,3,4-tetramethyl-2-(3-(3-(methylamino)-1-(pyridin-3-yl)propoxy)phenyl)-2H-pyrazolo[3,4-d]pyridazin-7-amine], for which the inhibition constant Ki was 100 to 500 nM in test [1] and less than 500 nM in test [2].
On the same counts, the results for `CNCCC(Oc1cccc(-n2nc3c(NC)nnc(C)c3c2C)c1)c1ccccc1F` (stereo not shown) [Example 22, 2-(3-(1-(2-fluorophenyl)-3-(methylamino)propoxy)phenyl)-N,3,4-trimethyl-2H-pyrazolo[3,4-d]pyridazin-7-amine] are less than 100 nM and 500 to 5000 nM.
On the same counts, the results for `Cc1nnc(N(C)C)c2nn(-c3cccc(OC(CCN(C)C)c4ccccc4)c3)c(C)c12` (stereo not shown) [Example 2, 2-(3-(3-(dimethylamino)-1-phenylpropoxy)phenyl)-N,N,3,4-tetramethyl-2H-pyrazolo[3,4-d]pyridazin-7-amine] are 100 to 500 nM and 500 to 5000 nM.
On the same counts, the results for `CNCC[C@H](Oc1cccc(-n2c(C)c3c(C)nnc(C)c3c2C)c1)c1cccc(F)c1` [Example 68, (S)-3-(3-Fluorophenyl)-N-methyl-3-(3-(1,4,5,7-tetramethyl-6H-pyrrolo[3,4-d]pyridazin-6-yl)phenoxy)propan-1-amine] are 100 to 500 nM and no less than 5000 nM.
As to `CNCCC(Oc1cccc(-n2nc3c(NC)nnc(C)c3c2C)c1)c1ccccc1` (stereo not shown) [Example 25, N,3,4-trimethyl-2-(3-(3-(methylamino)-1-phenylpropoxy)phenyl)-2H-pyrazolo[3,4-d]pyridazin-7-amine], the inhibition constant Ki in test [1] was in the range of 100 to 500 nM; in test [2] it was 500 to 5000 nM.
On the same counts, the results for `Cc1nnc(N(C)C)c2nn(-c3cccc(OCCC(N)c4ccccc4)c3)c(C)c12` (stereo not shown) [Example 14, 2-(3-(3-amino-3-phenylpropoxy)phenyl)-N,N,3,4-tetramethyl-2H-pyrazolo[3,4-d]pyridazin-7-amine] are 100 to 500 nM and 500 to 5000 nM.
On the same counts, the results for `Cc1nnc(N(C)C)c2nn(-c3cccc(OCC4CCNCC4)c3)c(C)c12` [Example 29, N,N,3,4-tetramethyl-2-(3-(piperidin-4-ylmethoxy)phenyl)-2H-pyrazolo[3,4-d]pyridazin-7-amine] are no less than 1000 nM and no less than 5000 nM.
With `CNCC(Oc1cccc(-n2nc3c(N(C)C)nnc(C)c3c2C)c1)c1ccccc1` (stereo not shown) [Example 35, N,N,3,4-tetramethyl-2-(3-(2-(methylamino)-1-phenylethoxy)phenyl)-2H-pyrazolo[3,4-d]pyridazin-7-amine], the Ki is less than 100 nM in test [1] and 500 to 5000 nM in test [2].
On the same counts, the results for `CNCC[C@H](Oc1cccc(-n2nc3c(N(C)C)nnc(C)c3c2C)c1)c1cccnc1` [Example 64, (S)-N,N,3,4-tetramethyl-2-(3-(3-(methylamino)-1-(pyridin-3-yl)propoxy)phenyl)-2H-pyrazolo[3,4-d]pyridazin-7-amine] are 100 to 500 nM and less than 500 nM.
